# Results as given in patent EP4741383A1, “COMPOUND AND USE THEREOF AS ANTI-CANCER DRUG” (Tyligand Bioscience (Shanghai) Limited, priority 2023, dated 2025).
# Like-named read-outs stand apart in the source and are kept apart here.
# Assays:
# [1] = biological target: T1, CYP3A4 (Homo sapiens, UniProt P08684); assay: CYP450 inhibition in human liver microsomes, CYP3A4 (midazolam and testosterone substrates); assay type: in vitro ADME
# T1 construct: tissue Corning or Xenotech; host or cells: human liver microsomes
# From the text: (§1) According to standard methods in the field for the study of cytochrome P450 enzyme systems, such as the method described in Kerns, Edward H. and Di Li et al., Drug-like Properties: Concepts, Structure Design and Methods: from ADME to Toxicity Optimization (2008), San Diego, Academic Press, and Lin, Tong et al., In Vitro Assessment of Cytochrome P450 Inhibition: Strategies for Increasing LC/MS-Based Assay Throughput Using a One-Point IC50 Method and Multiplexing High-Performance Liquid Chromatography (J. Pharm. Sci. 2007, 96 (9), 2485). The inhibitory effect of the disclosed compounds on the cytochrome P450 enzyme system was similarly examined below.
# (§2) Human liver microsomes were purchased from Corning or Xenotech. The test compounds were evaluated by detecting the metabolism of substrates for different Cyp450 isoforms by human liver microsomes.
# (§3) 0.1 M potassium phosphate buffer (K-buffer, pH 7.4) was pre-warmed.
# (§4) 100 mM K-buffer was prepared by mixing 9.5 mL of stock solution A (1 M potassium dihydrogen phosphate, prepared by dissolving 136.5 g of potassium dihydrogen phosphate in 1 L of Milli-Q water) with 40.5 mL of stock solution B (1 M potassium hydrogen phosphate, prepared by dissolving 174.2 g of potassium hydrogen phosphate in 1 L of Milli-Q water). The total volume was adjusted to 500 mL with Milli-Q water, and the buffer was titrated to pH 7.4 using KOH or H3PO4.
# (§5) Test compound solution and specific inhibitor solution (400× dilution) were prepared in a 96-well plate. For the test compound, 8 µL of 10 mM test compound was transferred into 12 µL of ACN. For specific inhibitors of CYP1A2, CYP2C9, and CYP2D6: 12 µL of 1 mM α-naphthoflavone, 10 µL of 40 mM sulfaphenazole, 10 µL of 10 mM quinidine, and 8 µL of DMSO were mixed. For specific inhibitors of CYP3A4, CYP2B6, CYP2C8, and CYP2C19: 8 µL of DMSO stock solution was added to 12 µL of ACN.
# A 4× diluted NADPH solution was prepared by dissolving 66.7 mg of NADPH in 10 mL of 0.1 M K-buffer (pH 7.4). Human liver microsome (HLM) solutions were prepared in K-buffer, wherein 0.1 mg/mL for CYP1A2, CYP2C9, CYP2D6, CYP3A4, and CYP2B6, 0.5 mg/mL for CYP2C19, 0.2 mg/mL for CYP2C8. 4× diluted substrate dilution solutions (2 mL per isozyme) were prepared in K-buffer (HLM was added on ice if required) with the following concentrations: 120 µM for CYP1A2, 40 µM for CYP2C9, 140 µM with 1.6 mg/mL HLM for CYP2C19, 40 µM for CYP2D6, 320 µM and 20 µM for CYP3A4 (two concentrations), 280 µM for CYP2B6, 40 µM with 0.4 mg/mL HLM for CYP2C8.
# A 0.2 mg/mL HLM solution was prepared on ice (by adding 10 µL of 20 mg/mL stock to 990 µL of 0.1 M K buffer). To the assay wells, 400 µL of the 0.2 mg/mL HLM solution was added, followed by 2 µL of the 400× diluted test compound solution, which was added on ice to the designated wells. To the assay wells, 200 µL of the 0.2 mg/mL HLM solution was added, followed by 1 µL of the specific inhibitor solution, which was added on ice to the designated wells. The following solutions were added in duplicate to the 96-well analysis plate kept on ice: 30 µL of the 2× diluted test compound solution and the specific inhibitor solution were added to the 0.2 mg/mL HLM solution, 15 µL of the 4× diluted substrate solution was added. The 96-well assay plate and the NADPH solution were pre-incubated at 37 °C for 5 min. The reaction was initiated by adding 15 µL of the pre-warmed 8 mM NADPH solution to the assay plate. Reactions were performed at 37 °C for the following durations according to the P450 isoform: 5 min for CYP3A4, 10 min for CYP1A2, CYP2B6, CYP2C8, CYP2C9, and CYP2D6, 45 min for CYP2C19. Reactions were terminated by adding 120 µL of ACN containing internal standards. The final internal standard concentrations were: 0.1 µM for CYP2C19, CYP1A2, CYP3A4 (midazolam), and CYP2D6, 200 ng/mL for CYP3A4 (testosterone), 0.31 µM for CYP2C9, 0.36 µM (100 ng/mL) for CYP2B6, 40 ng/mL for CYP2C8. […]
# [2] = biological target: T2, CYP2D6 (Homo sapiens, UniProt P10635); assay: CYP450 inhibition in human liver microsomes, CYP2D6; assay type: in vitro ADME; details: pH 7.4, read-out: % CYP inhibition @ 10 µM 2D6
# T2 construct: tissue Corning or Xenotech; host or cells: human liver microsomes
# From the text: as §1, §2, §3, §4, §5
# A 4× diluted NADPH solution was prepared by dissolving 66.7 mg of NADPH in 10 mL of 0.1 M K-buffer (pH 7.4). […]
# [3] = pH 7.4, probe midazolam, midazolam substrate, read-out: % CYP inhibition @ 10 µM 3A4 (midazolam)
# [4] = pH 7.4, probe testosterone, testosterone substrate, read-out: % CYP inhibition @ 10 µM 3A4 (testosterone)
# T1 sequence (P08684 whole entry): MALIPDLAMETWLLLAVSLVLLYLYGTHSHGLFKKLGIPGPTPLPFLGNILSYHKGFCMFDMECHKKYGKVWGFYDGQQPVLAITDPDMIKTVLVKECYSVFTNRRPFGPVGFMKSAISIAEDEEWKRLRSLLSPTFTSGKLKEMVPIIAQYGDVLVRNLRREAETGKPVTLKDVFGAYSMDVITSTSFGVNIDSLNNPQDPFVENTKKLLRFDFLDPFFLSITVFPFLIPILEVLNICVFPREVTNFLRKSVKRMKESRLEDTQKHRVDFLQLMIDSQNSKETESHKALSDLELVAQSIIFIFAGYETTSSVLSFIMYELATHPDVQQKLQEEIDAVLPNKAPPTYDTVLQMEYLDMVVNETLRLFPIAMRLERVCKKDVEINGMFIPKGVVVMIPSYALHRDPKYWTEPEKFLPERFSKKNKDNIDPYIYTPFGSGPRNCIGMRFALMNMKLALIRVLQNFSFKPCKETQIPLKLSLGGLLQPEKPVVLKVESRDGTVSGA
# T2 sequence (P10635 whole entry): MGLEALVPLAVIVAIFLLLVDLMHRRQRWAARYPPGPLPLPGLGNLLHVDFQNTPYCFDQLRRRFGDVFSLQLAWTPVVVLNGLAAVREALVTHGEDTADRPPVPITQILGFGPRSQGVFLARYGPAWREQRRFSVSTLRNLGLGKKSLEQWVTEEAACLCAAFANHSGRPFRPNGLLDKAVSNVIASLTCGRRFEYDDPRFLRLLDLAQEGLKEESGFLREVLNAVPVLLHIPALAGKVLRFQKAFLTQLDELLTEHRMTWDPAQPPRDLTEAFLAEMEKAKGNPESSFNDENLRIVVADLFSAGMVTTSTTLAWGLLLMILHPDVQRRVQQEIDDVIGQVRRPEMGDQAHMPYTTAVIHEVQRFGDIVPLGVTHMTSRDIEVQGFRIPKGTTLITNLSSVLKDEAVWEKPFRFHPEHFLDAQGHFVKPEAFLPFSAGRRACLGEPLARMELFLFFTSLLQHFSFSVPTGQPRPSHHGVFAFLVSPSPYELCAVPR
SMILES,"inhibition at 5 min, 10 µM [1, 3]","inhibition at 5 min, 10 µM [1, 4]","inhibition at 10 min, 10 µM [2]"
O=C(Nc1ccc(-c2cc3cc(F)c(-c4nnn[nH]4)cc3n2C2CCC2)cc1)C(=O)Nc1ccc(N2CCC3(CCOC3)CC2)cc1 [Example 67],13%,-0.87%,-12.6%
O=C(Nc1ccc(-c2cc3cc(F)c(-c4nnn[nH]4)cc3n2C2CCC2)cc1)C(=O)Nc1ccc(N2CCC(CO)CC2)cc1 [Example 23],5.28%,-22.6%,-5.43%
CC1(n2c(-c3ccc(NC(=O)C(=O)Nc4ccc(N5CCC6(CCOC6)CC5)cc4)cc3)cc3cc(F)c(-c4nnn[nH]4)cc32)CCC1 [Example 68],-10.2%,2.46%,-4.07%
